Measurements: EP0613890A1, “Novel triazole compound, process for preparing the same and antifungal agent containing the same” (NIHON NOHYAKU CO., LTD., priority 1993, dated 1994)

Tests used:
[1] = tested on: Candida albicans IFO 1270; assay: Survival of mice intravenously inoculated with Candida albicans, oral treatment (Test Example 2); assay type: in vivo; settings: male ddy mice, i.v. Candida albicans IFO 1270 (1 x 10⁸ cells/kg); 10 mg/kg orally once a day for three days; 10th day from inoculation
Description: Six-week-old male ddy mice were used as test animals (10 animals per control group; 5 animals per test group). Each animal was intravenously inoculated with Candida albicans IFO 1270 (1 x 10⁸ cells/kg) which has been subcultured on Sabouraud's glucose agar at 37 °C for 24 hours.
After the inoculation, each test compound was orally administered at a dosage of 10 mg/kg to the animal once a day for consecutive three days.
On the 10th day from the inoculation, the survival rate was monitored.

[2] = tested on: Candida albicans IFO 1270; assay: Growth inhibition of Candida albicans in Sabouraud's glucose broth (Test Example 1); assay type: cell-based; settings: Candida albicans IFO 1270, Sabouraud's glucose broth
Description: To 9.8 mℓ of Sabouraud's glucose broth, 0.1 mℓ of cell suspension of Candida albicans IFO 1270 (1.0 x 10⁷ cells/mℓ) and 0.1 mℓ of test compound solution (1000 or 10 µg/mℓ) was added. The growth inhibition ratio (%) was determined. For comparison, cis-1-acetyl-4-[4-[[2-(2,4-dichrolophenyl)-2-(imidazol-1-ylmethyl)-1,3-dioxolan-4-yl]methoxy]phenyl]piperazine (Ketoconazole) was used as a reference compound (hereinafter referred to as compound A).

| SMILES | Rate of Survival (%) [1] [%] | Growth Inhibition (%) ([2]; 0.1 µg/mℓ) | Growth Inhibition (%) ([2]; 10 µg/mℓ) |
| --- | --- | --- | --- |
| C/C(=C\c1ccc(C(=O)N2CCOCC2)cc1)C(O)(Cn1cncn1)c1ccc(F)cc1F (racemic) [Compound No. 3] | 40 | 0 | 76 |
| C/C(=C\c1ccc(C#N)cc1)C(O)(Cn1cncn1)c1ccc(F)cc1F (racemic) [Compound No. 5, 2-(2,4-Difluorophenyl)-2-[1-methyl-2(4-cyanophenyl)ethenyl]-1-triazolyl-2-ethanol] | 100 | 72 | 96 |
| C/C(=C\c1ccc(OC(F)(F)F)cc1)C(O)(Cn1cncn1)c1ccc(F)cc1F (racemic) [Compound No. 6, 2-(2,4-Difluorophenyl)-2-[1-methyl-2-(4-trifluoromethoxyphenyl)ethenyl]-1-triazolyl-2-ethanol] | 100 | 63 | 86 |
| C/C(=C\c1ccc(CO)cc1)C(O)(Cn1cncn1)c1ccc(F)cc1F (racemic) [compound 4] | 40 | 8 | 65 |
| C/C(=C\c1ccc(OCC(F)(F)C(F)F)cc1)C(O)(Cn1cncn1)c1ccc(F)cc1F (racemic) [compound 7] | 100 | 60 | 86 |
| C/C(=C\c1ccccn1)C(O)(Cn1cncn1)c1ccc(F)cc1F (racemic) [compound 9] | 20 | 72 | 84 |
| C/C(=C\c1cccs1)C(O)(Cn1cncn1)c1ccc(F)cc1F (racemic) [compound 10] | 40 | 13 | 62 |
| C/C(=C\c1ccc(C(=O)NNC=O)cc1)C(O)(Cn1cncn1)c1ccc(F)cc1F (racemic) [compound 15] | 60 | 3 | 55 |
| C/C(=C\c1ccc(-c2nc[nH]n2)cc1)C(O)(Cn1cncn1)c1ccc(F)cc1F (racemic) [compound 23] | – | 8 | 67 |
| C/C(=C\c1ccc(SC(C)(C)C)cc1)C(O)(Cn1cncn1)c1ccc(F)cc1F (racemic) [compound 26] | – | 48 | 67 |
| C/C(=C\Sc1ccc(F)cc1)C(O)(Cn1cncn1)c1ccc(F)cc1 (racemic) [compound 30] | 40 | 11 | 83 |
| C/C(=C\C#Cc1ccc(F)cc1)C(O)(Cn1cncn1)c1ccc(F)cc1F (racemic) [compound 36] | 100 | 71 | 78 |
| C/C(=C\C=C\c1ccc(C(F)(F)F)cc1)C(O)(Cn1cncn1)c1ccc(F)cc1F (racemic) [compound 37] | 100 | 50 | 78 |
| CC(=O)N1CCN(c2ccc(OC[C@H]3CO[C@](Cn4ccnc4)(c4ccc(Cl)cc4Cl)O3)cc2)CC1 (relative stereo) [compound A, cis-1-acetyl-4-[4-[[2-(2,4-dichrolophenyl)-2-(imidazol-1-ylmethyl)-1,3-dioxolan-4-yl]methoxy]phenyl]piperazine, reference compound] | 20 | 62 | 76 |
| CC(=Cn1cncn1)C(O)(Cn1cncn1)c1ccc(F)cc1 (centres unmarked) [Compound No. 14] | 100 | – | – |
